Laboratory results: patent US20050020544A1, “Bicyclic CB2 cannabinoid receptor ligands” (priority 2002, published 2005)

Tests used:
human CB1 receptor = target: T1, human CB1 receptor (Homo sapiens, UniProt P21554); test: biochemical; format: binding; details: displacement of [3H]CP55940, hCB1 HEK-293 membranes; read-out: CB1 IC50
T1 construct: purchased Perkin Elmer/NEN; host or cells: HEK-293 cells, stably transfected (membranes)
Experimental: (§1) In the present invention, binding affinity is represented by the IC50 value, namely the concentration of a test compound that will displace 50% of a radiolabeled agonist from the CB receptors. […] Preferably these ratios will be obtained for human CB1 and CB2 receptors. The selectivity toward CB2, denoted CB2/CB1 affinity, is calculated as the IC50 value obtained by the test compound for the displacement of the CB1 specific radioligand divided by the IC50 value obtained for the displacement of the CB2 specific radioligand, i.e. the IC50 CB1/IC50 CB2.
The CB1 binding assays were performed by testing the ability of the new compounds to displace [^3H]CP55940 from the CB1 receptor on membranes derived from hCB1 stably transfected HEK-293 cells (Perkin Elmer/NEN). Membranes were diluted in the assay buffer (50 mM Tris-HCl, 2.5 mM EDTA, 5 mM MgCl2, 1 mg/ml BSA, pH=7.4) to 500 μg protein/ml. 50 μl of diluted membranes (25 μg) were incubated with [^3H]CP55940 in the presence or absence of the bicyclic test compounds in a total volume of 0.5 ml. Tested compounds were dissolved in DMSO and diluted in the assay buffer to a final concentration of 0.1% solvent. Control samples were added with identical amount of vehicle. Non-specific binding was measured by the addition of 10 μM of WIN 55212-2. Following 1.5 hours incubation at 30° C. reactions were filtered through Whatman 934A/H filters (presoaked with 0.1% Polyethylenimine (PEI)).
(§2) Binding to CB1 is measured by competitive inhibition of [^3H]CP55940 in HEK-293 cells stably transfected with the human CB1 receptor gene. Binding to CB2 is measured by competitive inhibition of [^3H]WIN55212-2 in CHO cells stably transfected with the human CB2 receptor gene.

human CB2 receptor [1] = target: T2, human CB2 receptor (Homo sapiens, UniProt P34972); test: Adenylylcyclase assay: forskolin-activated cAMP in CB2 transfected HEK-293 cells; format: cell-based; details: CB2 receptor transfected HEK-293, 1 μM forskolin
Experimental: Cannabinoids and derivatives bind to G-protein-coupled CB1 and CB2 receptors and exert their activity via the inhibition of adenylylcyclase activity. An adenylylcyclase assay forms a basis for the functional analysis of the compounds by determining their capacity to inhibit or promote forskolin-activated cAMP production. The assay is carried out according to Chin et al. (Chin, C. N. et al., J. Neurochem. 70: 366-73, 1998). Briefly, HEK-293 human kidney cells (ATCC#CRL-1573) stably transfected with either the human CB1 or CB2 receptor (cDNA) were grown in DMEM supplemented with 10% fetal calf serum, 1% Penicillin-Streptomycin and 2 mM L-glutamine. Cells were seeded in 24 wells plate at 5×10^4 cells/well and incubated for 48 hours. Medium was then removed and the adherent cells were washed with PBS. Two hundred μl of serum free medium supplemented with 0.2 mM Ro 20-1724, 0.25% BSA, and 20 mM HEPES was then added to each well. The cells were then activated with 1 μM forskolin in presence of the bicyclic test compounds in concentrations ranging from 10 pM up to 1 μM. The activated cells were then incubated at 37° C. for 20 minutes and the reaction terminated with 1.2 M HCl to a final concentration of 0.1 M. Cells were lyzed by freeze and thaw and the lysate was neutralized with 2 M HEPES, pH 7.5. cAMP was measured in 50 μl aliquots using the [^3H]-cAMP assay system (Amersham).
This experiment was first performed on CB2 receptor transfected cells.

human CB2 receptor [2] = target: T2, human CB2 receptor; test: biochemical; format: binding; parameters: purchased Perkin Elmer/NEN; host or cells: CHO cells, stably transfected (membranes); details: for CB2/CB1 affinity ratio: IC50 CB1/IC50 CB2; for IC50: displacement of [3H]WIN 55212-2, hCB2 CHO membranes
Experimental: as §1
The affinities of the novel bicyclic analogs to the CB2 receptor were determined by their ability to displace [^3H]WIN 55212-2 from the receptor in membranes derived from hCB2 stably transfected CHO cells (Perkin Elmer/NEN). Membranes were diluted in assay buffer (10 mM HEPES, 1 mM MgCl2, 1 mM EDTA, 0.3 mg/ml BSA, pH=7.4) to 500 μg protein/ml. 50 μl of diluted membranes (25 μg) were incubated with 0.8 nM of [^3H]WIN 55212-2 in the presence or absence of several concentrations of the bicyclic test compounds in a total volume of 1 ml. Tested compounds were dissolved and diluted as previously described for the hCB1 assay. Non-specific binding was measured by the addition of 10 μM CP 55940. Following 40 minutes incubation at 30° C. reactions were filtered as previously described. Filters for all binding assays were counted in a β-counter and log of analog concentration versus % of binding was plotted. IC50 values were extrapolated from this plot.
as §2

[3] = test system: TNF-α secretion from activated RAW 264.7 macrophages; test: Inhibition of TNF-α in LPS activated macrophages (ELISA); format: cell-based, mouse; details: doses up to 20 μM
Text: (§3) The technique used to quantify the amount of a given protein in a liquid sample, either tissue culture supernatant or body fluid, is based on Enzyme Linked ImmunoSorbent Assay (ELISA) methodology. Either commercially available or established in house, the assay is based on the capture of the protein of interest by specific antibodies bound to the bottom of an ELISA plate well. Unbound material is washed away, the captured protein is then exposed to a secondary antibody generally labeled with horseradish peroxidase (HRP) or alkaline phosphatase (ALP). Again the unbound material is washed away, the samples are then incubated with the appropriate substrate yielding a calorimetric reaction. The reaction is stopped and reading is performed in a spectrophotometer at the appropriate wavelength. Samples are tested at least in duplicate and the appropriate standard curve, consisting of serial dilutions of the recombinant target protein, is incorporated on each plate. Concentration of the protein in the sample is calculated from the standard curve.
(§4) RAW 264.7 macrophages, a mouse cell line (ATCC # TIB-71), were grown in Dulbecco's modified Eagle's medium (DMEM) with 4 mM L-glutamine adjusted to contain 1.5 g/L sodium bicarbonate, 4.5 g/L glucose, and 10% heat inactivated fetal bovine serum. Cells were grown in tissue culture flasks and seeded at appropriate density into 24 wells tissue culture plates. 0.5×10^6 Raw cells in one milliliter were stimulated with 2 μg/ml Lipopolysaccharide E. coli 055:B5 (DIFCO Laboratories). The mouse macrophages were pre-treated for one hour with controls or 10 μM of bicyclic CB2 ligands and later on activated with LPS. Dexamethasone was used as a positive control at 50 nM. Supernatant was collected 4 hours (for PGE2) and 24 hours (for IL-1β and TNF-α) after activation, and the levels of the inflammatory agent under study were determined by ELISA, as previously described. Inhibition was calculated versus vehicle treated cells.
The activation of the macrophages is performed as previously described. The levels of TNF-α are measured in an ELISA assay as previously described. Inhibition is calculated versus vehicle treated cells.

[4] = test system: PGE2 secretion from activated RAW 264.7 macrophages; test: Inhibition of PGE2 in LPS activated macrophages (ELISA); format: cell-based, mouse; details: Mus musculus, RAW264.7; 4 hours after activation, doses 1 μM to 20 μM
Text: as §3, §4
The activation of the macrophages is performed as previously described. The levels of PGE2 are measured in an ELISA assay as previously described. Inhibition is calculated versus vehicle treated cells. […] Results are depicted in FIG. 2B.

ICR male mice = test: Tail flick model for acute peripheral pain, i.p.; format: in vivo, mouse; details: 10 mg/kg i.p., 330 minutes (five and a half hours)
Experimental: ICR male mice (20-30 g average body weight, Harlan, Israel) were injected i.p. at the volume dose of 5 ml/kg. Each treatment group contained at least 6 animals. Morphine HCl was used as positive control at the final dose of 5 mg/kg. Its vehicle, saline, was also included as control. The test compounds were dissolved in CREMOPHOR EL®:ethanol and diluted 1:20 in saline prior to injection, this second type of vehicle was also included as negative control. The final dose injected varied from 0.1 to 10 mg/kg. At predetermined time points after treatment injection, the animals were placed in the tail flick system (Socrel, model DS 20). Animals were gently held while their tails were located above the photoelectric cell. The tails were then illuminated (21V) at 2 cm from the distal tip and the latency time, measured in seconds, was recorded in duplicates. At the end of the study, the animals were euthanized by i.p. injection of 100 mg/kg sodium pentobarbitone.
Two parameters were used to analyze the results, the latency time and the % of animals showing analgesia. […] The results in both cases are expressed as mean±SE. The differences between the latency times or the % of animals showing analgesia among various treatment groups was analyzed by analysis of variance (ANOVA) followed by post-hoc Tukey's test (for latency) or Fisher's exact test (for % animals). A value of p<0.05 is considered to be statistically significant.

Male Sprague Dawley rats = test: Inflammatory pain: carrageenan paw edema in rats, thermal and mechanical stimuli; format: in vivo, rat; details: 10 mg/kg i.p., three hours
Experimental: Male Sprague Dawley rats (200 g average body weight, Harlan, Israel) are transiently sedated by placement on dry ice for the duration of the injections. […] Before induction of inflammatory pain and three hours after injection, the animals reactions to pain stimuli were tested in two systems. The first stimulus was thermal and assessed by the Plantar Test according to Hargreaves, using Ugo Basile Model 7370. The scale was set to an intensity of 50 arbitrary units. The latency time till the animal lift a paw as a reaction to the thermal stimulus was recorded for both the inflamed and non-inflamed hind paws. The second stimulus was mechanical (tactile) and assessed using a Dynamic Plantar Sesthesiomether (Ugo Basile Model 73400-002).
The results are measured as the differences between the two hind paws at time 0 and 3 hours both as ALT, for the latency time in the thermal part of the study, and as ΔForce, for the mechanical part of the study.

Lewis rats = format: in vivo, rat; details: 30 mg/kg i.v., 5 times before the disease onset
Experimental: Various animal models of autoimmune encephalomyelitis are known in the art, depending on the method of induction, the strain of the animal and the antigen employed to induce the disease. The impact of bicyclic CB2 ligands was tested in EAE using Lewis rats in which the onset of disease is observed by the appearance of clinical symptoms about 10 days after induction. The disease progress and the clinical score increase and peak around day 15 and spontaneous recovery is observed around day 18 after induction of the disease. The animals (at least 9 per test group at initiation of study, except for the untreated control group that comprised only 5 rats) were maintained on a 12 hours light/12 hours dark regimen, at a constant temperature of 22° C., with food and water ad libitum. EAE was induced in these animals by immunization with s.c. injection to the hind paws of 25 μg of purified guinea pig myelin basic protein (MBP, Sigma) emulsified in 0.1 ml of Complete Freund's Adjuvant (Difco).
Methylprednisolone was used as positive control and it was administered daily for 5 consecutive days i.v. at 30 mg/kg starting from day of disease induction by MBP injection. The results are recorded as clinical score; score of 0 indicates a normal animal with no clinical signs, 0.5 indicates a loss of tonicity in the tail's distal part, 1 indicates whole tail paralysis, 2 indicates paraplegia, 3 indicates quadriplegia, 4 indicates complete body paralysis and moribund state and 5 indicates death. The clinical score of the animals is recorded for 11 days following onset of disease and the area under the curve (AUC) is calculated over this period of time.
Moreover, in a separate study animals were euthanized 15 days after induction of the disease by i.p. injection of 100 mg/kg pentobarbital. Brains and spinal cord were removed and were fixed by overnight incubation with 4% Paraformaldehyde. The cervical segment of the spinal cord was dehydrated using ethanol solutions of increasing concentration and then embedded in paraplast. The spinal cord was then sectioned (10 μm) and staining was performed using hematoxylin and eosin. The stained slides were examined under light microscopy for foci of infiltrating lymphocytes. Number of foci were counted and averaged in 6 sections for each animal. Three groups of at least 4 animals each were tested in this system: untreated, vehicle treated, and animals treated with 0.5 mg/kg of compound A. Results are expressed as average±SD of number of foci.

T2 sequence (P34972 whole entry): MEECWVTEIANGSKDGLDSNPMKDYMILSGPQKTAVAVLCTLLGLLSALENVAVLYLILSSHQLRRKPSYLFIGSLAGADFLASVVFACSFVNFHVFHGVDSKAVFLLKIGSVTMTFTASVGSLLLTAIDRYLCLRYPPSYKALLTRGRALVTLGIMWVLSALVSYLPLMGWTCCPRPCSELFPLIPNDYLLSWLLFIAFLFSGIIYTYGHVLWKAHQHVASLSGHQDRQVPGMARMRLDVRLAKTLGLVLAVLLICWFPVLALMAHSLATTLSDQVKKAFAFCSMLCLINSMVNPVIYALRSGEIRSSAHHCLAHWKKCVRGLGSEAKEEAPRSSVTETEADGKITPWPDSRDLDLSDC
T1 sequence (P21554 whole entry): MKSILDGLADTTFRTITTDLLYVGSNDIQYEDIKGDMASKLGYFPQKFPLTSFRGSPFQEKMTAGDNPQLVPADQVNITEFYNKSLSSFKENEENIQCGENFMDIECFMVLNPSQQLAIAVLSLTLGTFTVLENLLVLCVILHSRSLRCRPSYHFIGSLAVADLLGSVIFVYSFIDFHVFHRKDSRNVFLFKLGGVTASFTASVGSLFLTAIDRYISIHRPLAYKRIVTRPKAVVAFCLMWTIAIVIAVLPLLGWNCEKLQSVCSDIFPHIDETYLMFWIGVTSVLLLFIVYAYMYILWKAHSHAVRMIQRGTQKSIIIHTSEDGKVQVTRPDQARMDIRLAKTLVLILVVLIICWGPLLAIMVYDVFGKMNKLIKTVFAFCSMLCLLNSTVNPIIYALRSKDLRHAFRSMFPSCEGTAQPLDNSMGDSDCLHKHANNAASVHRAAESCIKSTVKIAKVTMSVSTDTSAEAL

SMILES | IC50 (human CB1 receptor) [nM] | IC50 (human CB2 receptor [1]; read-out: IC50 inhibition of cAMP level) [nM] | inhibition at 1 µM (human CB2 receptor [1]; HEK293, read-out: % inhibition at 1 μM) [%] | CB2/CB1 affinity ratio (human CB2 receptor [2]) | IC50 (human CB2 receptor [2]) [nM] | effect on TNF-α secretion [3] | IC50 [4] [nM] | % animals showing increased analgesia (ICR male mice) | latency time (ICR male mice) [s] | ΔForce (tactile stimulus) (Male Sprague Dawley rats) [g] | ΔLT (thermal stimulus) (Male Sprague Dawley rats) [s] | reduction in the AUC of the clinical score (Lewis rats) [%]
CCCCCCC(C)(C)c1cc(OC(=O)CCC(=O)O)c([C@H]2CC(=O)[C@H]3C[C@@H]2C3(C)C)c(OC(=O)CCC(=O)O)c1 [Compound S, 4-{4-[1,1-Dimethyl-heptyl]-2,6-bisuccinate-phenyl}-6,6-dimethyl-bicyclo[3.1.1]heptan-2-one] | 117 | 0.16 | 58 | 77 | 1.52 |  |  |  |  |  |  | 
CC(C)(CCCCBr)c1cc(O)c(C2CC(=O)C3CC2C3(C)C)c(O)c1 (single isomer, unassigned; (-)) [Compound N, (−)-4-[4-(5-Bromo-1,1-Dimethyl-pentyl)-2,6-dihydroxy-phenyl]-6,6-dimethyl-bicyclo[3.1.1]heptan-2-one] | 50 |  |  | 139 | 0.36 | none of them did significantly affect TNF-α secretion | 7000 | about 60% | 5.4 | 6 | 2 | 
CC(C)(CCCCC#N)c1cc(O)c([C@H]2CC(=O)[C@H]3C[C@@H]2C3(C)C)c(O)c1 [Compound P, (−)-4-[4-(1,1-Dimethyl-pentyl-5-nitrile)-2,6-dihydroxy-phenyl]-6,6-dimethyl-bicyclo[3.1.1]heptan-2-one] | 227 |  |  | 146 | 1.55 | none of them did significantly affect TNF-α secretion | 18000 |  |  |  |  | 
C[C@H]1C[C@@H]2[C@H]([C@@H](O)C[C@@]3(C)[C@H]2CC[C@]3(O)C(=O)CO)[C@@]2(C)C=CC(=O)C=C12 [Methylprednisolone, reference compound] |  |  |  |  |  |  |  |  |  |  |  | 34
